According to article PMC8962522, “Direct interaction of TrkA/CD44v3 is essential for NGF-promoted aggressiveness of breast cancer cells” (Journal of Experimental & Clinical Cancer Research : CR, 2022):

Experiments:
[1] = system: TrkA/CD44v6 complex in MDA-MB-231 cells; experiment: PLA TrkA/CD44v6 complex formation in MDA-MB-231 cells; type: cell-based; details: NGF 100 ng/ml; 30 fields per condition, three experiments
Description: Cells (10,000 cells per well) were grown on acid-washed eight-well glass slides (Thermo Scientific) in the appropriate medium supplemented with 10% FBS for 24 h. After NGF treatment, paraformaldehyde (PAF)-fixed cells were incubated with 4% bovine serum albumin (BSA) or 5% FBS (for 1 h at 20 °C), followed by overnight incubation with primary antibodies (rabbit anti-TrkA or rabbit anti-IgG + mouse anti-pan-CD44; mouse anti-CD44v3; mouse anti-CD44v6; mouse anti-IgG2a; mouse anti-IgG2b; or mouse anti-IgG1). PLA was performed following the manufacturer’s instructions in the assay kit (Duolink PLA; Sigma–Aldrich). To obtain the correct representation of the PLA signal for each condition, 30 fields per condition were observed using a fluorescence microscope (Eclipse TiU; Nikon, Japan). The PLA signals (red dots) were automatically quantified using ImageJ software (with an in-house-developed plug-in). […]
Fig. 3 CD44v3 mimetic peptide 4 blocks the TrkA-CD44 association in MDA-MB-231 breast cancer cells. TrkA/CD44v3 (A) and TrkA/CD44v6 (B) complex associations were detected by the proximity ligation assay (PLA) in MDA-MB-231 breast cancer cells. […] Quantification of the PLA results was performed by ImageJ software (30 randomly chosen fields per condition of three different experiments). […]

[2] = cited from earlier work
Description: With more functions than those of a membrane receptor, CD44 is a multifunctional platform implicated in numerous physiological and disease mechanisms. In cancer, it has many functions (e.g., adhesion, migration/invasion, growth, differentiation, and resistance to therapies) depending on the splice variant expressed, corresponding ligands, posttranscriptional modifications, and association with growth factors and different membrane proteins.

[3] = system: MDA-MB-231 xenograft tumors; experiment: MDA-MB-231 xenograft tumor growth in SCID mice; type: in vivo; details: injected near the tumor five times in a 3-day interval, from mean tumor volume 100 mm^3; versus PBS; 10 mice per group
Description: (§1) MDA-MB-231 cells (2 × 10^6) were subcutaneously injected into the flanks of six-week-old female SCID mice. One month after injection, the mice were randomized into 2 groups and injected near the tumor with CD44v3 mimetic peptide 4 (P4) or not (control) five times in a 3-day interval. Tumor volume was determined throughout the experiment by measuring the length (l) and width (w) and was calculated as π/6 × l × w × […]. Animals were sacrificed using isoflurane anesthesia when the tumors reached a similar size, and the organs were immediately removed and stored in liquid nitrogen.
To assess the role of TrkA/CD44v3 in vivo, SCID mice were injected with MDA-MB-231 cells to generate xenografts. Primary tumor development and metastasis (to the lung, brain and liver) were analyzed (Fig. 6). […] The development of primary tumors was measured throughout the experiments. […] We also assessed the metastatic burden. […] Micrometastases were detected at the end of the experiment by PCR of human microglobulin in xenograft mice treated with or without the CD44v3 mimetic peptide (Fig. 6E). […]
Fig. 6 CD44v3 mimetic peptide 4 blocks MDA-MB-231 tumor growth and metastasis. […] Body weight (B) and tumor volume (C) were measured following CD44v3 mimetic peptide administration (10 mice per group). […]

[4] = Body weight in xenografted SCID mice; type: in vivo; details: 10 mice per group; injections near the tumor
Description: as §1
Fig. 6 CD44v3 mimetic peptide 4 blocks MDA-MB-231 tumor growth and metastasis. Schematic representation of the experimental setup for MDA-MB-231 tumor growth assessment in SCID mice (A). Body weight (B) and tumor volume (C) were measured following CD44v3 mimetic peptide administration (10 mice per group). Schematic representation of the experimental setup for MDA-MB-231 metastasis assessment in SCID mice (D). Percentage of metastasis-positive lungs, brains and livers (E) after scramble peptide or CD44v3 mimetic peptide 4 treatment (3 mice/group) or (F) after TrkA-H112 mutant treatment (6 mice) compared with HA-TrkA cells (5 mice). ** p < 0.01; ns, nonsignificant. […]

| Substance | effect on TrkA/CD44v6 complex formation (PLA) in MDA-MB-231 cells [1] | binding to heparin (in words) [2] | tumor growth (in words) [3] | body weight (in words) [4] |
| --- | --- | --- | --- | --- |
| NGF: recombinant human β-NGF (Alomone Labs, Israel) | did not induce TrkA/CD44v6 complex formation | does not bind heparin |  |  |
| IDDDEDFISST [Peptide 4, mimetic peptide 4 (…) corresponding to the C-terminal region of CD44v3] |  |  | significantly inhibited the growth of MDA-MB-231 cells in xenograft tumors | did not affect the overall body weight of the mice |
